pIC50: −log10 of the molar value.
Legend:
[1] = tested on: A375 human melanoma cells; experiment: Karyomorphosis test; format: cell-based; conditions: test compound 10 μM and 1 μM, 48 hr, nuclei stained with propidium iodide
Protocol: A375 human melanoma cells (2×10^4) (obtained from Japanese Foundation for Cancer Research) were incolulated on a culture slide (manufactured by Falcon) and were cultured at 37° C. After the elapse of 5 hr from the initiation of the cultivation, the test compound was added to 10 μM and 1 μM, and the cultivation was continued for additional 48 hr. After the fixation of cells, 50 μg/ml propidium iodide solution containing ribonuclease (200 μg/ml) was added to stain nuclei. The stained nuclei were observed under a fluorescent microscope to analyze the nuclei for abnormality of karyomorphosis.

[2] = tested on: activation of MAPK within vascular endothelial cells induced by VEGF stimulation; experiment: Inhibitory activity against activation of MAPK within vascular endothelial cells induced by VEGF stimulation; format: cell-based; conditions: human funicular venous vascular endothelial cells, VEGF 50 ng/ml, phosphorylated MAPK by immunoblotting
Protocol: Measurement of Inhibitory Activity Against Activation of MAPK Within Vascular Endothelial Cells Induced by VEGF Stimulation
Human funicular venous vascular endothelial cells (purchased from Chronetics) were cultured in an EGM-2 medium (purchased from Chronetics) within an incubator containing 5% carbon dioxide until 50 to 70% confluent, and the culture was inoculated into wells, containing the same medium, in a 96-well flat-bottom plate in an amount of 1.5×10^5 per well. After cultivation at 37° C. overnight, the medium was replaced by an EBM-2 medium containing 0.5% fetal calf serum (purchased from Chronetics), followed by cultivation for 24 hr. A solution of the test compound in dimethyl sulfoxide was added to each well, and the cultivation was continued at 37° C. for additional one hr. A human recombinant vascular endothelial growth factor (hereinafter abbreviated to “VEGF”) was added to a final concentration of 50 ng/ml, and the stimulation of cells was carried out at 37° C. for 8 min. The medium was removed, the cells were washed with phosphate buffered saline (pH 7.4), and 10 μl of a solubilization buffer (Tris buffered saline (pH 7.4) containing 1% Triton X100, 2 mM sodium orthovanadylate, and 1 mM disodium ethylenediaminetetraacetate) was then added thereto. The mixture was shaken at 4° C. for one hr to solubilize the cells. An equal amount of Tris buffered saline containing 1% sodium laurylsulfate was added to and thoroughly mixed with the solution. This solution (2 μl) was adsorbed on a PVDF filter by dot blotting, and this filter was subjected to immunoblotting with anti-tyrosine phosphorylated MAPK antibody (purchased from Daiichi Pure Chemicals).
The level of phosphorylated MAPK was quantitatively determined with a densitometer, and the percentage phosphorylated MAPK in the presence of the test compound was determined by presuming the level of phosphorylated MAPK with the addition of VEGF in the absence of the test compound to be 100% and the level of phosphorylated MAPK in the absence of the test compound and VEGF to be 0%. The test compound concentration (IC50) necessary for inhibiting 50% of the activation of MAPK was calculated based on the percentage of phosphorylated MAPK.

Human glioma cells GL07 = experiment: Antitumor effect on human glioma cells (GL07) transplanted into nude mice; format: in vivo; conditions: Mus musculus, Glioma cell, 216 h, GL07, oral, 20 mg/kg once a day for 9 days, read-out: TGIR, % (tumor growth inhibition rate)
Summary of the method: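 GL07 xenografts in nude mice, grouped (n=4) at ~100 mm^3 tumor volume. Test compound 20 mg/kg p.o. or i.p. once daily for 9 days; vehicle controls. TGIR = (1−Tx/Cx)×100 from tumor volumes normalized to day-of-start volume = 1.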

human KDR = biological target: T1, human KDR (Homo sapiens, UniProt P35968); experiment: Inhibitory activity against KDR phosphorylation by ELISA; format: cell-based; conditions: NIH 3T3 cells transfected with human KDR, VEGF 100 ng/ml
T1 construct: expressed in transfected cells; host or cells: NIH 3T3 cells (Sawano A et al., Cell Growth & Differentiation 7, 213-221 (1996))
T1 sequence (P35968 20-1356): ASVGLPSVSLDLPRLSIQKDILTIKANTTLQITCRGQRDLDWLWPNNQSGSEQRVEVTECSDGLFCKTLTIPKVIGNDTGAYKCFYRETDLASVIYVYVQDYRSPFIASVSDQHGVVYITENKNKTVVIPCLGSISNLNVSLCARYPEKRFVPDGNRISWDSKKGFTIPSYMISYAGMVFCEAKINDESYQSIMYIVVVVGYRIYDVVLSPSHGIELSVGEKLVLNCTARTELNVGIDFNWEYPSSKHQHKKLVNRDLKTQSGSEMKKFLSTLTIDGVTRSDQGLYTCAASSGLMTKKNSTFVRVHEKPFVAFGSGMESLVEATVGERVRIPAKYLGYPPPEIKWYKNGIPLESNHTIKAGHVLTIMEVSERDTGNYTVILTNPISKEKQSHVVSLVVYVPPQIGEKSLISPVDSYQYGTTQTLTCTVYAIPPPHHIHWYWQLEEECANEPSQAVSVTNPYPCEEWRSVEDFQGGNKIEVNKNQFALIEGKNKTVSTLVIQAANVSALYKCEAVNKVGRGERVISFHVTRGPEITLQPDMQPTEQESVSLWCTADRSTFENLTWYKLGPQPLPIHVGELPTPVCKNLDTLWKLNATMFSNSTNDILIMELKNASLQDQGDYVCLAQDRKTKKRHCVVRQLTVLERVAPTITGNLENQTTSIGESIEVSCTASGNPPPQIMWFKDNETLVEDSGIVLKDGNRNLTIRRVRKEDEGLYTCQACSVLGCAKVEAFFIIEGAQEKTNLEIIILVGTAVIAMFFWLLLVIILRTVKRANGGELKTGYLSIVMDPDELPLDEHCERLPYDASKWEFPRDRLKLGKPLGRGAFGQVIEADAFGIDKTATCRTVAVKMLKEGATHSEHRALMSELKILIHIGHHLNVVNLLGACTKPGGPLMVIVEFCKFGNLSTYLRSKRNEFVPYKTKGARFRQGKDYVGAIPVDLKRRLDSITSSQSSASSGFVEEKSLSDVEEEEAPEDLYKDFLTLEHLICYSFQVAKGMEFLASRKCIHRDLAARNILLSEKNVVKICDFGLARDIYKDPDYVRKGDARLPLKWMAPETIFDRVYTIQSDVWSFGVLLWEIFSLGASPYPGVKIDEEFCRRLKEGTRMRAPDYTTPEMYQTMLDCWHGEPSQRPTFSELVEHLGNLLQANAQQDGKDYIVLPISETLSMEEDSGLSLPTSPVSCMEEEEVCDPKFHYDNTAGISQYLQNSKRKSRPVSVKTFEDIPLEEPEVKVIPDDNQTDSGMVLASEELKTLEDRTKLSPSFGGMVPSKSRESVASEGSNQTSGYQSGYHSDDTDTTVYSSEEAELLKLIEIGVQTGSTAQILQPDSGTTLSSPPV

`COc1cc2nccc(Oc3ccc(NC(=O)Nc4ccc(Br)c(C)n4)c(Cl)c3)c2cc1OC` [Example 15, N-(5-Bromo-6-methyl-2-pyridyl)-N′-{2-chloro-4-[(6,7-dimethoxy-4-quinolyl)oxy]phenyl}urea] was tested, and the Change in morphosis [1] was “(−) (the change in karyomorphosis of cells did not take place at 10 μM)”.

For `COc1cc2nccc(Oc3ccc(NC(=O)Nc4ccc(C)cn4)c(Cl)c3)c2cc1OC` [Example 20, N-{2-Chloro-4-[(6,7-dimethoxy-4-guinolyl)oxy]phenyl}-N′-(5-methyl-2-pyridyl)urea], the pIC50 [2] was 8.07 and the Change in morphosis [1] was “(−) (the change in karyomorphosis of cells did not take place at 10 μM)”.

For `COc1cc2nccc(Oc3ccc(NC(=O)Nc4cccc(C)n4)c(Cl)c3)c2cc1OC` [Example 21, N-{2-Chloro-4-[(6,7-dimethoxy-4-quinolyl)oxy]phenyl}-N′-(6-methyl-2-pyridyl)urea], the pIC50 ([2]; Endothelial cell) was 8.47 and the Change in morphosis [1] was “(−) (the change in karyomorphosis of cells did not take place at 10 μM)”.

`COc1ccc(NC(=O)Nc2ccc(Oc3ccnc4cc(OC)c(OC)cc34)cc2Cl)cc1.Cl` [Example 22, N-{2-Chloro-4-[(6,7-dimethoxy-4-quinolyl)oxy]phenyl}-N′-(4-methoxyphenyl)urea hydrochloride] was tested, and the pIC50 ([2]; Endothelial cell) was 9.40 and the Change in morphosis [1] was “(−) (the change in karyomorphosis of cells did not take place at 10 μM)”.

With `COc1cc2nccc(Oc3ccc(NC(=O)Nc4cccc(F)c4OC)c(C)c3C)c2cc1OC` [Example 26, N-{4-[(6,7-Dimethoxy-4-guinolyl)oxy]-2,3-dimethylphenyl}-N′-(3-fluoro-2-methoxyphenyl)urea] the pIC50 [2] was 8.28 and the Change in morphosis [1] was “(−) (the change in karyomorphosis of cells did not take place at 10 μM)”.

`COc1ccccc1NC(=O)Nc1ccc(Oc2ccnc3cc(OC)c(OC)cc23)c(C)c1C` [Example 30, N-{4-[(6,7-Dimethoxy-4-guinolyl)oxy]-2,3-dimethylphenyl}-N′-(2-methoxyphenyl)urea] was tested, and the pIC50 [2] was 8.77 and the Change in morphosis [1] was “(−) (the change in karyomorphosis of cells did not take place at 10 μM)”.

With `COc1cc2nccc(Oc3ccc(NC(=O)Nc4ccccc4C)c(C)c3C)c2cc1OC` [Example 31, N-{4-[(6,7-Dimethoxy-4-guinolyl)oxy]-2,3-dimethylphenyl}-N′-(2-methylphenyl)urea] the pIC50 [2] was 8.60 and the Change in morphosis [1] was “(−) (the change in karyomorphosis of cells did not take place at 10 μM)”.

For `COc1cc2nccc(Oc3ccc(NC(=O)Nc4ccc(Cl)cc4C)c(C)c3C)c2cc1OC` [Example 32, N-(4-Chloro-2-methylphenyl)-N′-{4-[(6,7-dimethoxy-4-guinolyl)oxy]-2,3-dimethylphenyl}urea], the pIC50 [2] was 8.14 and the Change in morphosis [1] was “(−) (the change in karyomorphosis of cells did not take place at 10 μM)”.

`COc1cc2nccc(Oc3ccc(NC(=O)Nc4ccccn4)c(C)c3C)c2cc1OC` [Example 33, N-{4-[(6,7-Dimethoxy-4-guinolyl)oxy]-2,3-dimethylphenyl}-N′-(2-pyridyl)urea] was tested, and the pIC50 [2] was 8.46 and the Change in morphosis [1] was “(−) (the change in karyomorphosis of cells did not take place at 10 μM)”.

In the case of `COc1cc2nccc(Oc3ccc(NC(=O)Nc4ccc(C)cn4)c(C)c3C)c2cc1OC` [Example 34, N-{4-[(6,7-Dimethoxy-4-guinolyl)oxy]-2,3-dimethylphenyl}-N′-(5-methyl-2-pyridyl)urea], the pIC50 [2] was 8.38 and the Change in morphosis [1] was “(−) (the change in karyomorphosis of cells did not take place at 10 μM)”.

In the case of `CCCNC(=O)Nc1cc(C)c(Oc2ccnc3cc(OC)c(OC)cc23)cc1C` [Example 38, N-{4-[(6,7-Dimethoxy-4-quinolyl)oxy]-2,5-dimethylphenyl}-N′-propylurea], the Change in morphosis [1] was “(−) (the change in karyomorphosis of cells did not take place at 10 μM)”.

With `COc1cc2nccc(Oc3cc(C)c(NC(=O)Nc4ccc(Cl)cc4C)cc3C)c2cc1OC` [Example 39, N-(4-chloro-2-methylphenyl)-N′-{4-[(6,7-dimethoxy-4-quinolyl)oxy]-2,5-dimethylphenyl}urea] the Change in morphosis [1] was “(−) (the change in karyomorphosis of cells did not take place at 10 μM)”.

With `COc1cc2nccc(Oc3cc(C)c(NC(=O)Nc4ccc(Br)c(C)n4)cc3C)c2cc1OC` [Example 44, N-(5-Bromo-6-methyl-2-pyridyl)-N′-{4-[(6,7-dimethoxy-4-quinolyl)oxy]-2,5-dimethylphenyl}urea] the Change in morphosis [1] was “(−) (the change in karyomorphosis of cells did not take place at 10 μM)”.

In the case of `COc1ccccc1NC(=O)Nc1ccc(Oc2ccnc3cc(OCc4ccccc4)c(OC)cc23)c(C)c1C` [Example 60, N-(4-{[7-(Benzyloxy)-6-methoxy-4-quinolyl]oxy}-2,3-dimethylphenyl)-N′-(2-methoxyphenyl)-urea], the Change in morphosis [1] was “(−) (the change in karyomorphosis of cells did not take place at 10 μM)”.

In the case of `COc1cc2ncnc(Oc3ccc(NC(=O)Nc4ccc(F)cc4F)c(Cl)c3)c2cc1OC` [Example 61, N-{2-Chloro-4-[(6,7-dimethoxy-4-quinazolinyl)oxy]phenyl}-N′-(2,4-difluorophenyl)urea], the Change in morphosis [1] was “(−) (the change in karyomorphosis of cells did not take place at 10 μM)”.

`COc1cc2ncnc(Oc3ccc(NC(=O)Nc4ccc(F)cc4F)cc3C)c2cc1OC` [Example 99, N-(2,4-Difluorophenyl)-N′-{4-[(6,7-dimethoxy-4-quinazolinyl)oxy]-3-methylpenyl}urea] showed a pIC50 ([2]; Endothelial cell) of 8.06, an inhibition in vivo at 20 mg/kg (Human glioma cells GL07) of 33% and a pIC50 (human KDR) of 7.60.

`COc1cc2ncnc(Oc3ccc(NC(=O)Nc4ccc(F)cc4)cc3C)c2cc1OC` [Example 100, N-{4-[(6,7-Dimethoxy-4-quinazolinyl)oxy)-3-methylphenyl}-N′-(4-fluorophenyl)urea] gave a pIC50 ([2]; Endothelial cell) of 8.28, an inhibition in vivo at 20 mg/kg (Human glioma cells GL07) of 36% and a pIC50 (human KDR) of 7.89.

For `CCCNC(=O)Nc1ccc(Oc2ncnc3cc(OC)c(OC)cc23)cc1C` [Example 102, N-{4-[(6,7-Dimethoxy-4-quinazolinyl)oxy]-2-methylphenyl}-N′-propylurea], the pIC50 ([2]; Endothelial cell) was 6.82, the inhibition in vivo at 20 mg/kg (Human glioma cells GL07) was 24% and the pIC50 (human KDR) was 6.98.

With `CCCCNC(=O)Nc1ccc(Oc2ncnc3cc(OC)c(OC)cc23)cc1C` [Example 103, N-Butyl-N′-{4-[(6,7-dimethoxy-4-quinazolinyl)oxy]-2-methylphenyl}urea] the pIC50 ([2]; Endothelial cell) was 7.28, the inhibition in vivo at 20 mg/kg (Human glioma cells GL07) was 23% and the pIC50 (human KDR) was 7.11.

With `COc1cc2ncnc(Oc3ccc(NC(=O)Nc4ccc(F)cc4F)c(C)c3)c2cc1OC` [Example 104, N-(2,4-Difluorophenyl)-N′-{4-[(6,7-dimethoxy-4-quinazolinyl)oxy]-2-methylphenyl}urea] the pIC50 ([2]; Endothelial cell) was 8.28, the inhibition in vivo at 20 mg/kg (Human glioma cells GL07) was 22% and the pIC50 (human KDR) was 8.41.

In the case of `COc1cc2ncnc(Oc3ccc(NC(=O)Nc4ccc(F)cc4)c(C)c3)c2cc1OC` [Example 105, N-{4-[(6,7-Dimethoxy-4-quinazolinyl)oxy]-2-methylphenyl}-N′-(4-fluorophenyl)urea], the pIC50 ([2]; Endothelial cell) was 8.64, the inhibition in vivo at 20 mg/kg (Human glioma cells GL07) was 20% and the pIC50 (human KDR) was 8.70.

`CCCNC(=O)Nc1ccc(Oc2ncnc3cc(OC)c(OC)cc23)cc1[N+](=O)[O-]` [Example 107, N-{4-[(6,7-Dimethoxy-4-quinazolinyl)oxy]-2-nitrophenyl}-N′-propylurea] showed a pIC50 ([2]; Endothelial cell) of 7.99, an inhibition in vivo at 20 mg/kg (Human glioma cells GL07) of 49% and a pIC50 (human KDR) of 7.96.

From patent publication US7169789B2 (Kirin Beer Kabushiki Kaisha, priority 1999, dated 2007)
